Laboratory results as given in patent US7183324B2, “2,3,4-substituted cyclopentanones as therapeutic agents” (Allergan, Inc., priority 2004, dated 2007).

How the values were obtained:
hEP4/Gqs5 = biological target: T1, hEP4/Gqs5 (Homo sapiens, UniProt P35408); test: FLIPR calcium signal, hEP4/Gqs5; type: cell-based; details: HEK-293 (EBNA) cells, read-out: FUNCTIONAL EC50 HEP4
T1 construct: expressed in transfected cells; host or cells: HEK-293 (EBNA)
Protocol: (§1) HEK-293 (EBNA) cells, stably expressing one type or subtype of recombinant human prostaglandin receptors (prostaglandin receptors expressed: hDP/Gqs5; hEP1; hEP2/Gqs5; hEP3A/Gqi5; hEP4/Gqs5; hFP; hIP; hTP), were cultured in 100 mm culture dishes in high-glucose DMEM medium containing 10% fetal bovine serum, 2 mM 1-glutamine, 250 μg/ml geneticin (G418) and 200 μg/ml hygromycin B as selection markers, and 100 units/ml penicillin G, 100 μg/ml streptomycin and 0.25 μg/ml amphotericin B. • (b) Calcium Signal Studies on the FLIPR™
(§2) Cells were seeded at a density of 5×10^4 cells per well in Biocoat® Poly-D-lysine-coated black-wall, clear-bottom 96-well plates (Becton-Dickinson) and allowed to attach overnight in an incubator at 37° C. Cells were then washed two times with HBSS-HEPES buffer (Hanks Balanced Salt Solution without bicarbonate and phenol red, 20 mM HEPES, pH 7.4) using a Denley Cellwash plate washer (Labsystems). After 45 minutes of dye-loading in the dark, using the calcium-sensitive dye Fluo-4 AM at a final concentration of 2 μM, plates were washed four times with HBSS-HEPES buffer to remove excess dye leaving 100 μl in each well. Plates were re-equilibrated to 37° C. for a few minutes.
(§3) Cells were excited with an Argon laser at 488 nm, and emission was measured through a 510–570 nm bandwidth emission filter (FLIPR™, Molecular Devices, Sunnyvale, Calif.). Drug solution was added in a 50 μl volume to each well to give the desired final concentration. The peak increase in fluorescence intensity was recorded for each well. On each plate, four wells each served as negative (HBSS-HEPES buffer) and positive controls (standard agonists: BW245C (hDP); PGE2 (hEP1; hEP2/Gqs5; hEP3A/Gqi5; hEP4/Gqs5); PGF2α (hFP); carbacyclin (hIP); U46619 (hTP), depending on receptor). The peak fluorescence change in each drug-containing well was then expressed relative to the controls.
(§4) Compounds were tested in a high-throughput (HTS) or concentration-response (CoRe) format. In the HTS format, forty-four compounds per plate were examined in duplicates at a concentration of 10^−5 M. To generate concentration-response curves, four compounds per plate were tested in duplicates in a concentration range between 10^−5 and 10^−11 M. The duplicate values were averaged. In either, HTS or CoRe format each compound was tested on at least 3 separate plates using cells from different passages to give an n≧3.

hTP = biological target: T2, hTP (Homo sapiens, UniProt P21731); test: FLIPR calcium signal, hTP; type: cell-based; details: HEK-293 (EBNA) cells, read-out: FUNCTIONAL EC50 HTP
T2 construct: expressed in transfected cells; host or cells: HEK-293 (EBNA)
T2 sequence (P21731 1-343): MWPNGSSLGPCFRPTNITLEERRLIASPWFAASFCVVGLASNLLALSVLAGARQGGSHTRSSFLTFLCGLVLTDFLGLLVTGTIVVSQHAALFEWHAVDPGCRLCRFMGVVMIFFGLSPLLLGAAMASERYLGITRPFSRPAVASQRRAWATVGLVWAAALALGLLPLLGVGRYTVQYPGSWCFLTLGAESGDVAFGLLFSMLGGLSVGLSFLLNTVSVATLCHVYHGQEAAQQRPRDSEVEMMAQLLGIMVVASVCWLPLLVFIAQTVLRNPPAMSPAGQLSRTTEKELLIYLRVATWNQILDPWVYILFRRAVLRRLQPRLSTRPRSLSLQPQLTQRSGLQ
Protocol: as §1, §2, §3, §4

hEP2/Gqs5 = biological target: T3, hEP2/Gqs5 (Homo sapiens, UniProt P43116); test: FLIPR calcium signal, hEP2/Gqs5; type: cell-based; details: HEK-293 (EBNA) cells, read-out: FUNCTIONAL EC50 HEP2
T3 construct: expressed in transfected cells; host or cells: HEK-293 (EBNA)
T3 sequence (P43116 whole entry): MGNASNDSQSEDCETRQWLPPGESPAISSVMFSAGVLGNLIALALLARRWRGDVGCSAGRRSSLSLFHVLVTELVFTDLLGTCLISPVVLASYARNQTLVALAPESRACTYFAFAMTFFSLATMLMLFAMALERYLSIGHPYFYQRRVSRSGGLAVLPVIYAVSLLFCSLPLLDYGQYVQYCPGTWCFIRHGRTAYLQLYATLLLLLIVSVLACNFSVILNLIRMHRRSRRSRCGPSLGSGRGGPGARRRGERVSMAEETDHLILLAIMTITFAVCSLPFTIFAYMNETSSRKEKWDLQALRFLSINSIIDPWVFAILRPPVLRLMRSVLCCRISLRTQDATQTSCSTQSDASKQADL
Protocol: as §1, §2, §3
Compounds were tested in a high-throughput (HTS) or concentration-response (CoRe) format. […]

hEP3A/Gqi5 = biological target: T4, hEP3A/Gqi5 (Homo sapiens, UniProt P43115); test: FLIPR calcium signal, hEP3A/Gqi5; type: cell-based; details: HEK-293 (EBNA) cells, read-out: FUNCTIONAL EC50 HEP3A
T4 construct: expressed in transfected cells; host or cells: HEK-293 (EBNA)
T4 sequence (P43115 1-390): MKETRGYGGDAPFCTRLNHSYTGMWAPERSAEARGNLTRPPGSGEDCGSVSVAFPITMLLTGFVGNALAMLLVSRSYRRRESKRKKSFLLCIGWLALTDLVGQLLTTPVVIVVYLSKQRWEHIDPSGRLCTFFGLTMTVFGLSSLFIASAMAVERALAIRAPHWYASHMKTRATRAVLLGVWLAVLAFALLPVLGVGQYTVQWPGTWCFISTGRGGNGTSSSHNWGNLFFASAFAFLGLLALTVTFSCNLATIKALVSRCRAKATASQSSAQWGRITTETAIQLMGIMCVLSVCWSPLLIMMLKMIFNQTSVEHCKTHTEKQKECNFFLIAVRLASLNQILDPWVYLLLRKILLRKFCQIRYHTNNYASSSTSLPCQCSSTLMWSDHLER
Protocol: as §1, §2, §3, §4

HEP4 = biological target: T5, HEP4 (Homo sapiens, UniProt P35408); test: Radioligand binding, EP4 receptor; details: [3H]PGE2 5 nM, HEK-293 membranes
T5 construct: expressed in transfected cells; host or cells: HEK-293
T5 sequence (P35408 whole entry): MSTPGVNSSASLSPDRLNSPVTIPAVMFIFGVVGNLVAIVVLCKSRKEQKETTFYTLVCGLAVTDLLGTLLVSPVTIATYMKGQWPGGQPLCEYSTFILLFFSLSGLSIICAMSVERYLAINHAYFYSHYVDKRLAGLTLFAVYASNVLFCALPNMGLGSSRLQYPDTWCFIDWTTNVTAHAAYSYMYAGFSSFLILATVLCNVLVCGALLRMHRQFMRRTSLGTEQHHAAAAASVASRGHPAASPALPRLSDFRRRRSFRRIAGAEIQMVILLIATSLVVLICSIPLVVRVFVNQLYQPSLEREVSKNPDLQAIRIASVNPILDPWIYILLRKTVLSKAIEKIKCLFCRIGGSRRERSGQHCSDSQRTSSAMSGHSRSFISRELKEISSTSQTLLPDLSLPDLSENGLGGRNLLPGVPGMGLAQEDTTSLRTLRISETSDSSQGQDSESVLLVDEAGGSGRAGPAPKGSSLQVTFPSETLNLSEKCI
Protocol: (§5) HEK-293 cells stably expressing the human or feline FP receptor, or EP1, EP2, or EP4 receptors were washed with TME buffer, scraped from the bottom of the flasks, and homogenized for 30 sec using a Brinkman PT 10/35 polytron. TME buffer was added to achieve a final 40 ml volume in the centrifuge tubes (the composition of TME is 100 mM TRIS base, 20 mM MgCl2, […]; 10N HCl is added to achieve a pH of 7.4).
(§6) The cell homogenate was centrifuged at 19000 r.p.m. for 20 min at 4° C. using a Beckman Ti-60 rotor. The resultant pellet was resuspended in TME buffer to give a final 1 mg/ml protein concentration, as determined by Biorad assay. Radioligand binding competition assays vs. [^3H-]17-phenyl PGF2α (5 nM) were performed in a 100 μl volume for 60 min. Binding reactions were started by adding plasma membrane fraction. The reaction was terminated by the addition of 4 ml ice-cold TRIS-HCl buffer and rapid filtration through glass fiber GF/B filters using a Brandel cell harvester. The filters were washed 3 times with ice-cold buffer and oven dried for one hour. Non-specific binding was determined with 10 uM unlabeled 17-phenyl PGF2α.
(§7) [^3H-] PGE2 (5 nM; specific activity 180 Ci mmol) was used as the radioligand for EP receptors. Binding studies employing EP1, EP2, EP3, EP4 were performed in duplicate in at least three separate experiments. A 200 μl assay volume was used. Incubations were for 60 min at 25° C. and were terminated by the addition of 4 ml of ice-cold 50 mM TRIS-HCl, followed by rapid filtration through Whatman GF/B filters and three additional 4 ml washes in a cell harvester (Brandel). Non-specific binding determined with 10^−5M of unlabeled PGE2.

HEP2 = biological target: T6, HEP2 (Homo sapiens, UniProt P43116); test: Radioligand binding, EP2 receptor; details: [3H]PGE2 5 nM, HEK-293 membranes
T6 construct: expressed in transfected cells; host or cells: HEK-293
T6 sequence (P43116 whole entry): as the sequence (P43116 whole entry) above
Protocol: as §5, §6, §7

hIP = biological target: T7, hIP (Homo sapiens, UniProt P43119); test: FLIPR calcium signal, hIP; type: cell-based; details: HEK-293 (EBNA) cells, read-out: FUNCTIONAL EC50 HIP
T7 construct: expressed in transfected cells; host or cells: HEK-293 (EBNA)
T7 sequence (P43119 whole entry): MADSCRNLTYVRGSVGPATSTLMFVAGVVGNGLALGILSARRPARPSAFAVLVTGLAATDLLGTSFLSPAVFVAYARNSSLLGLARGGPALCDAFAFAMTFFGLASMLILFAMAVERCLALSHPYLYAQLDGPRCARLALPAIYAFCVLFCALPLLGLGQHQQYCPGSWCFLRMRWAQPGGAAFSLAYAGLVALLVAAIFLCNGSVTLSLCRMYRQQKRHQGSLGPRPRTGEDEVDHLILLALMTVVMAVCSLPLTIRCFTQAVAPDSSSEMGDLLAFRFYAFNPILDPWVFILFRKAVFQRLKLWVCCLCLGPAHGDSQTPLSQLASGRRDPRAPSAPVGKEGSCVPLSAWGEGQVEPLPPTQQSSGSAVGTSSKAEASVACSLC
Protocol: as §1
Cells were seeded at a density of 5×10^4 cells per well in Biocoat® Poly-D-lysine-coated black-wall, clear-bottom 96-well plates (Becton-Dickinson) and allowed to attach overnight in an incubator at 37° C. Cells were then washed two times with HBSS-HEPES buffer (Hanks Balanced Salt Solution without bicarbonate and phenol red, 20 mM HEPES, pH 7.4) using a Denley Cellwash plate washer (Labsystems). […]
Cells were excited with an Argon laser at 488 nm, and emission was measured through a 510–570 nm bandwidth emission filter (FLIPR™, Molecular Devices, Sunnyvale, Calif.). […] The peak increase in fluorescence intensity was recorded for each well. […] The peak fluorescence change in each drug-containing well was then expressed relative to the controls. […]

HEP3D = biological target: T8, HEP3D (Homo sapiens, UniProt P43115); test: Radioligand binding, EP3 receptor; details: [3H]PGE2 5 nM
T8 sequence (P43115 1-374 isoform P43115-4): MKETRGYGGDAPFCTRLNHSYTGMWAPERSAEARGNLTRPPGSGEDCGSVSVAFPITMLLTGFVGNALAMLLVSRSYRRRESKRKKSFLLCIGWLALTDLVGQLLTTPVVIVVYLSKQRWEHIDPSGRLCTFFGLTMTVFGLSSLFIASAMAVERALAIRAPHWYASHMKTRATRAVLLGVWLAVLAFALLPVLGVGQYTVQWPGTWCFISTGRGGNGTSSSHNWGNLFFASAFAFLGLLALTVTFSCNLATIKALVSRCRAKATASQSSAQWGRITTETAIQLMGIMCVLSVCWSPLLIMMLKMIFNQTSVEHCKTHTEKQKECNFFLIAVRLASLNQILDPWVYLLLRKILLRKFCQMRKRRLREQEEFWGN
Protocol: as §5, §6, §7

Beagle dogs [1] = test: Intraocular pressure in dogs (pneumatonometry); type: in vivo; details: dog, topical 25 μL drop, Conc. 0.1%, 5 day study
Protocol: (§8) • Intraocular Pressure (IOP) Intraocular pressure studies in dogs involved pneumatonometry performed in conscious, Beagle dogs of both sexes (10–15 kg). The animals remained conscious throughout the study and were gently restrained by hand. Drugs were administered topically to one eye as a 25 μL volume drop, the other eye received 25 μL vehicle (0.1% polysorbate 80:10 mM TRIS) as a control. Proparacaine (0.1%) was used for corneal anesthesia during tonometry. Intraocular pressure was determined just before drug administration and at 2, 4 and 6 hr thereafter on each day of the 5 day study. Drug was administered immediately after the first IOP reading. • An analogous procedure was carried out with cynomolgus monkeys with measurements at 2, 4, 6, and 24 hours after a single dose. • Pupil Diameter • Dog pupil diameter was measured using an optistick (a mm ruler which included half-circle references of standard widths (mm) for reference. Gently restraining the dog by hand, pupil diameter was determined by matching a half-circle to the pupil in normal room light. In dogs with very dark pupils a specialized penlight was used, but only very briefly to avoid pupil constriction. Pupil diameter was measured at the same time as IOP and hyperemia. • Ocular Surface Hyperemia • Ocular surface hyperemia was visually assessed and scored according to a system typically used clinically.

Beagle dogs [2] = test: Ocular surface hyperemia in dogs; type: in vivo; details: dog, topical, Conc. 0.1%; score: trace 0.5, mild 1, moderate 2, severe 3
Protocol: as §8
• Ocular surface hyperemia was evaluated at the same time points as intraocular pressure measurement. It should be noted that untreated dog eyes frequently have a pink/red tone. Thus, values of trace or even mild are not necessarily out of the normal range.

cynomolgus monkeys = test: Intraocular pressure in cynomolgus monkeys; type: in vivo; details: monkey, topical single dose, Conc. 0.1%
Protocol: as §8

T1 sequence (P35408 whole entry): as the sequence (P35408 whole entry) above

SMILES | EC50 (hEP4/Gqs5) | EC50 (hTP) | EC50 (hEP2/Gqs5) | EC50 (hEP3A/Gqi5) | IC50 (HEP4) | IC50 (HEP2) | EC50 (hIP) | IC50 (HEP3D) | Max. ΔIOP (Beagle dogs [1]) | Max hyperemia (Beagle dogs [2]) | Max. ΔIOP (cynomolgus monkeys)
O=C(O)CSCCCS[C@H]1C(=O)CC[C@@H]1/C=C/C(O)Cc1csc2ccccc12 (single isomer, unassigned) [drawing 55, {3-[2-(4-Benzo[b]thiophen-3-yl-3-hydroxy-but-1-enyl)-5-oxo-cyclopentylsulfanyl]-propylsulfanyl}-acetic acid] | 7240 nM | 3.7 nM | > 10000 nM | > 10000 nM | 26 nM | 600 nM | 389 nM | > 10000 nM |  |  | 
O=C(O)CSCCCS[C@H]1C(=O)C[C@@H](CO)[C@@H]1/C=C/C(O)Cc1ccccc1 (single isomer, unassigned) [Compound 151] | 59 nM |  |  |  | 53 nM |  |  | > 10000 nM | −4.0 mm Hg | 1.6 | −2.9 mm Hg
